Series [1] is described as follows: Tmax in rat. Particulars: in vivo. Type of series: ADME, organism-based.
The nature of series [2]: Blood clearance in rat. Format: ADME, organism-based. As to conditions: whole blood.
Series [3] is described as follows: Ratio of drug level in brain to blood in rat. Type of series: ADME, tissue-based. Particulars: read-out: BBR.
A further series addresses T1, Cytochrome P450 1A2 (Homo sapiens, UniProt P05177).
T1 sequence (P05177 whole entry): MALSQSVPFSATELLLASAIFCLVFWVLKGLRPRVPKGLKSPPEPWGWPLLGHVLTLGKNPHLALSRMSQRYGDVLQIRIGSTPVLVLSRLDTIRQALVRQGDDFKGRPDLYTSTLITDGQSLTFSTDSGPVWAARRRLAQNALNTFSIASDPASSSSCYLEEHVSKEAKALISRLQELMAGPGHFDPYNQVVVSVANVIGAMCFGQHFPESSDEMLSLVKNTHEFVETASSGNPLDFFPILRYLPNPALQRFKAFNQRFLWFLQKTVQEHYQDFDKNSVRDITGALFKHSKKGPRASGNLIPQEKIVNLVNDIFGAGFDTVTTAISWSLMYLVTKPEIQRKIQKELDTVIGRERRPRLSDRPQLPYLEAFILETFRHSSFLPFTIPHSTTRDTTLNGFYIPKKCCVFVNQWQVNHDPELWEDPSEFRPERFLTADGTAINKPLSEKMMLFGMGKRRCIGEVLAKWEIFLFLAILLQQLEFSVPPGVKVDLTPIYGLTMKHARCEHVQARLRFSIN
Put plainly: Inhibition of CYP1A2. Format: ADME.

For series [4], the target named is T2, Cytochrome P450 3A4 (Homo sapiens, UniProt P08684). Put plainly: Inhibition of CYP3A4 using diethoxyfluorescein as substrate. Type of series: ADME.
T2 sequence (P08684 whole entry): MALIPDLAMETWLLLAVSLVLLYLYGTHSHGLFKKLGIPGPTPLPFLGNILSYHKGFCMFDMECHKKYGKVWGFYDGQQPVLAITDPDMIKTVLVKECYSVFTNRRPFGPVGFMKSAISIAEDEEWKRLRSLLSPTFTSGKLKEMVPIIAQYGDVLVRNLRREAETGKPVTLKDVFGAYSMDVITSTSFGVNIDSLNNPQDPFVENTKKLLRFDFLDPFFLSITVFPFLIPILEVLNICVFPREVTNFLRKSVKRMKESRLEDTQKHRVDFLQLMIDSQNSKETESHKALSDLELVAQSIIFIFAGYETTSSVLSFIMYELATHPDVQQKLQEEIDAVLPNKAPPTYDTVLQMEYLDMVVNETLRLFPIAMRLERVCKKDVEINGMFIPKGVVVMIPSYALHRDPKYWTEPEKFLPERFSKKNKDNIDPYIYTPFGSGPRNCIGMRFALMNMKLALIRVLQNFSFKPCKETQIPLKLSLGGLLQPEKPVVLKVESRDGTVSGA
In series [5] the target is T2, Cytochrome P450 3A4. Nature of the series: Inhibition of CYP3A4 using 7-benzyloxyquinoline as substrate. Format: ADME.
Another series deals with Cytochrome P450 2D6 (Homo sapiens, UniProt P10635). Nature of the series: Inhibition of CYP2D6. Type of series: ADME.
Chain of Cytochrome P450 2D6 (P10635 whole entry): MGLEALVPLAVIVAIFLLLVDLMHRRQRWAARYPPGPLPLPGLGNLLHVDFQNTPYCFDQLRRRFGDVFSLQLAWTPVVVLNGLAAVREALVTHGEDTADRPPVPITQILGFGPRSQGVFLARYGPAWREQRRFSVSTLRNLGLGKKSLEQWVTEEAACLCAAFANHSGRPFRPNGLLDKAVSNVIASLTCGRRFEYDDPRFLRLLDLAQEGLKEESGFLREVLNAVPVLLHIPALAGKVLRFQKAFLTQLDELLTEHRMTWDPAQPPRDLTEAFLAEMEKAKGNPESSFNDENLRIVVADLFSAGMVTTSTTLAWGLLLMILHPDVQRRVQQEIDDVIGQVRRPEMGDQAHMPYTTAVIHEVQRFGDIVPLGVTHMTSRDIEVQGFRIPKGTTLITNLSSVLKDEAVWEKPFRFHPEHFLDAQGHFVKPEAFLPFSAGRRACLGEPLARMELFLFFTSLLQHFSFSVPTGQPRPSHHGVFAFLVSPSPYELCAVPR
The next series concerns the target Cytochrome P450 2C9 (Homo sapiens, UniProt P11712). Put plainly: Inhibition of CYP2C9. Type of series: ADME.
The next series has as its target Cytochrome P450 2C19 (Homo sapiens, UniProt P33261). Put plainly: Inhibition of CYP2C19. Type of series: ADME.
Series [6] in a line: Half life in rat. As to conditions: in vivo. Format: ADME, organism-based.
A further series has as its target D(2) dopamine receptor (Homo sapiens, UniProt P14416). Put plainly: Antagonist activity at dopamine D2 receptor assessed as inhibition of dopamine-induced [35S]GTPgammaS binding […]. Type of series: functional. Background: GTPγS is a poorly hydrolysed GTP analogue; its binding reports G protein activation.
Series [7] is described as follows: Volume of distribution in rat. Type of series: ADME, organism-based. As to conditions: in vivo.
Series [8] is described as follows: Bioavailability in rat. Type of series: ADME, organism-based. As to conditions: in vivo.
In series [9] the target is Voltage-gated inwardly rectifying potassium channel KCNH2 (Homo sapiens, UniProt Q12809).
Chain of Voltage-gated inwardly rectifying potassium channel KCNH2 (Q12809 whole entry): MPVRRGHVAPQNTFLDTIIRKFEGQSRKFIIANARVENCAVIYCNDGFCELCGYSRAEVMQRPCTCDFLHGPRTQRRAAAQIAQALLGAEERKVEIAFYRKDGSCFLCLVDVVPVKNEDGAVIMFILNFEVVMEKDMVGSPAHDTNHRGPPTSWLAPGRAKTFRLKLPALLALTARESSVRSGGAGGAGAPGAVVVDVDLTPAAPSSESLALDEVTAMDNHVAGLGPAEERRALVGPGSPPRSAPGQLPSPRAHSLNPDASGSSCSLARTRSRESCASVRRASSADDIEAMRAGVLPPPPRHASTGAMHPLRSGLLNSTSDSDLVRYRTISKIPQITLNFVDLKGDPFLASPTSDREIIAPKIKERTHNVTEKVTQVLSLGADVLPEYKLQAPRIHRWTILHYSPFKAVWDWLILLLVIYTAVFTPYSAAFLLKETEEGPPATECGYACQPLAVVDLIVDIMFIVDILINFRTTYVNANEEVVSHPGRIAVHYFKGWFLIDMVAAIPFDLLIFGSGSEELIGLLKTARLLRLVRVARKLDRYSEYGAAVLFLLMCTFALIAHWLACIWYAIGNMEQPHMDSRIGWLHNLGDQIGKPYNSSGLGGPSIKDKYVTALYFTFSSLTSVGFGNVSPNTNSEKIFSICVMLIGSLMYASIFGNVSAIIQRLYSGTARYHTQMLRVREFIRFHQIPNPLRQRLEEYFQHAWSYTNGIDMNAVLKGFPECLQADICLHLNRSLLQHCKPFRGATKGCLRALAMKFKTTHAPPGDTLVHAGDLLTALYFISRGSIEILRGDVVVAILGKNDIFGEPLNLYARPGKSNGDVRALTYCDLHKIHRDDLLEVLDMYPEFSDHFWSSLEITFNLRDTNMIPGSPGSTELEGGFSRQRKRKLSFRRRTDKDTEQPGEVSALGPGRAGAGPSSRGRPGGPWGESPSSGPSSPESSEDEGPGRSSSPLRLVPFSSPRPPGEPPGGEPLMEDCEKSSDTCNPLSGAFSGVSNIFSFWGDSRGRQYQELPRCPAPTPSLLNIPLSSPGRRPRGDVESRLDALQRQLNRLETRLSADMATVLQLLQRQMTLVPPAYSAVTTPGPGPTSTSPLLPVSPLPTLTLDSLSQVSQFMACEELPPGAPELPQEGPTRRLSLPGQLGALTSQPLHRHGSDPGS
Another series concerns the target D(3) dopamine receptor (Homo sapiens, UniProt P35462). Nature of the series: Antagonist activity at dopamine D3 receptor assessed as inhibition of dopamine-induced [35S]GTPgammaS binding […]. Type of series: functional.

A value given as a limit tells only on which side of the number the result lay.

Chain of Cytochrome P450 2C19 (P33261 whole entry): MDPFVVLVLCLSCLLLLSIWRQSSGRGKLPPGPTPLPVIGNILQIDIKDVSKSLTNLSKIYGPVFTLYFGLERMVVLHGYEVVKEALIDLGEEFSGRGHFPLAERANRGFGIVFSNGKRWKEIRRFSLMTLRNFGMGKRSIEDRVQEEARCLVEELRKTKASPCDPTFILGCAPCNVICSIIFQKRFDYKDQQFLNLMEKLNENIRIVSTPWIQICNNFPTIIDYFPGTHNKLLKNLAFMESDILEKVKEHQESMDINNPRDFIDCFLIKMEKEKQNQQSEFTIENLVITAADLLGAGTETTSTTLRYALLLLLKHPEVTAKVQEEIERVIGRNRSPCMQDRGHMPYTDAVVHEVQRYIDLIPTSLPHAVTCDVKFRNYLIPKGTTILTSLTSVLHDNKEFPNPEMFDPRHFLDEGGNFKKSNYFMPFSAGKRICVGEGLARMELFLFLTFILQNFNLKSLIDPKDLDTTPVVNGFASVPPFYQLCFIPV
Chain of D(2) dopamine receptor (P14416 whole entry): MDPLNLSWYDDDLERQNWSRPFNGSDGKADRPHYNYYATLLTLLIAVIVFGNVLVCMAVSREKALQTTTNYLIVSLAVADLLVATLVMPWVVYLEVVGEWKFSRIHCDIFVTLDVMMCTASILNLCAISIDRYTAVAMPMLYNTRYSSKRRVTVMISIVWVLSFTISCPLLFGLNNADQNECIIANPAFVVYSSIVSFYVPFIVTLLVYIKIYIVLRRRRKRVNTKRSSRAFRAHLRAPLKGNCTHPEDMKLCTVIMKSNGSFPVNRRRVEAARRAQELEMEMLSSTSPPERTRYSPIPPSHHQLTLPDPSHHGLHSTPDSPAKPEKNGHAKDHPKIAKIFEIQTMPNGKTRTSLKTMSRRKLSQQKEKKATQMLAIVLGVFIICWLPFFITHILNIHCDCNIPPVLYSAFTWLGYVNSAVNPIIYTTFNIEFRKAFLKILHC
Chain of Cytochrome P450 2C9 (P11712 whole entry): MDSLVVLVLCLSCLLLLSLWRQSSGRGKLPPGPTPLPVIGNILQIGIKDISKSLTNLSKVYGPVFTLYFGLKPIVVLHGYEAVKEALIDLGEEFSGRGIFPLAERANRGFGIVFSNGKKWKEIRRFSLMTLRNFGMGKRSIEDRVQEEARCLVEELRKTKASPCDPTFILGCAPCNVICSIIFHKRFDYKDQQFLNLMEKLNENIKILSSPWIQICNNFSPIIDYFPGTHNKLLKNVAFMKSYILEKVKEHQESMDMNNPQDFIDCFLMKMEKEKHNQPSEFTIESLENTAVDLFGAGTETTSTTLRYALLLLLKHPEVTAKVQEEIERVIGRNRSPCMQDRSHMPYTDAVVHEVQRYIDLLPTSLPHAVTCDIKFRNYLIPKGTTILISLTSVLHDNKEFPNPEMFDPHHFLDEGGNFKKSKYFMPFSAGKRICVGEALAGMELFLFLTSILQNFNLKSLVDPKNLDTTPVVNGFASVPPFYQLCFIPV
Chain of D(3) dopamine receptor (P35462 whole entry): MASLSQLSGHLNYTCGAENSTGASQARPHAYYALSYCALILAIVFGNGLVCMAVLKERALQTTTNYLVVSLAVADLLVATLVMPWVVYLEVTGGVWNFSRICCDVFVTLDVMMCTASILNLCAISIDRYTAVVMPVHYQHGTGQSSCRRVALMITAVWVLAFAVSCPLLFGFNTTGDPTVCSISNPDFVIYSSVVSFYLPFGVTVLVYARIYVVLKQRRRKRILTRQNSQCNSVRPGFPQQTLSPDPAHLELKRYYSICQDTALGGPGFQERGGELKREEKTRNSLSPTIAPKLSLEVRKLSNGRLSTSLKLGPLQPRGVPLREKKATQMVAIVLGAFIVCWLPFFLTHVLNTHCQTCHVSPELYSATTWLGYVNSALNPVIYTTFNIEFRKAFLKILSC

For the compound `Cc1ncoc1-c1nnc(SCCCN2CC3CC3(c3ccc(C(F)(F)F)cc3)C2)n1C` (racemic), in series [1], the Tmax (as a rule, the time from dosing to the highest level) was 1.5 h. Moreover, the clearance (in general, the rate of elimination divided by the concentration) in series [2] was found to be 14 mL/min/kg. In [3], the Kp came to 2.3.

Consider `Cc1ncoc1-c1nnc(SCCCN2CC3CC3(c3cccc(C(F)(F)F)c3)C2)n1C` (racemic), for which the IC50 (usually the midpoint of a concentration-inhibition curve) at Cytochrome P450 1A2 is above 10 µM; against Cytochrome P450 3A4 [4] it was above 10 µM; on Cytochrome P450 3A4 [5], above 10 µM; at Cytochrome P450 2D6 it was above 10 µM; at Cytochrome P450 2C9, above 10 µM; at Cytochrome P450 2C19 it was 5 µM.

`Cc1ncoc1-c1nnc(SCCCN2CC3CC3(c3ccc(S(F)(F)(F)(F)F)cc3)C2)n1C` (racemic): the time of peak concentration (Tmax) in series [1] turned out to be 2.7 h. Also, the clearance in [2] turned out to be 8 mL/min/kg. The concentration for half-maximal inhibition (IC50) against Cytochrome P450 1A2 is above 10 µM; against Cytochrome P450 3A4 [4], above 10 µM; against Cytochrome P450 3A4 [5], above 10 µM; on Cytochrome P450 2D6, 8 µM; on Cytochrome P450 2C9, 9 µM; against Cytochrome P450 2C19, above 10 µM. In addition, in series [3], the Kp came to 2.2. In addition, in [6], the half-life (usually the time needed for the level to fall by half in the phase considered) is 4.4 h. The inhibitory constant (Ki) (commonly the dissociation constant of the complex between target and ligand, obtained from inhibition or displacement) at D(2) dopamine receptor is 0.158 µM. In series [7], the Vd (usually a proportionality between amount in the body and measured concentration, not a real space) amounted to 2.8 L/kg. Moreover, the bioavailability (as a rule, the share of a dose that reaches the circulation, judged against a reference dose that is usually intravenous) in [8] was 87%.

As for `Cc1ncoc1-c1nnc(SCCCN2CC3CC3(c3cccc(S(F)(F)(F)(F)F)c3)C2)n1C` (racemic), the IC50 against Cytochrome P450 1A2 was above 10 µM; against Cytochrome P450 3A4 [4] it was above 10 µM; on Cytochrome P450 3A4 [5] it was above 10 µM; on Cytochrome P450 2D6, 3 µM; in series [9] it was 1 µM; against Cytochrome P450 2C9 it was 4 µM. Besides, the IC50 on Cytochrome P450 2C19 worked out at 9 µM. Further, the results for the Ki at D(2) dopamine receptor and on D(3) dopamine receptor were 0.126 µM and 0.00126 µM, respectively.

For the compound `Cc1ncoc1-c1nnc(SCCCN2CC3CC3(c3ccc(S(F)(F)(F)(F)F)cc3)C2)n1C` (single isomer, unassigned), the IC50 on Cytochrome P450 1A2 is 7 µM; at Cytochrome P450 3A4 [4] it was above 10 µM; against Cytochrome P450 3A4 [5], above 10 µM; at Cytochrome P450 2D6, above 10 µM; against Cytochrome P450 2C9, 9 µM; on Cytochrome P450 2C19, above 10 µM. The inhibition constant Ki was 0.251 µM at D(2) dopamine receptor and 0.0126 µM at D(3) dopamine receptor.

Regarding `Cc1ncoc1-c1nnc(SCCCN2CC3CC3(c3cccc(S(F)(F)(F)(F)F)c3)C2)n1C` (single isomer, unassigned; 11), the half-maximal inhibitory concentration (IC50) was above 10 µM against Cytochrome P450 1A2; above 10 µM against Cytochrome P450 3A4 [4]; above 10 µM against Cytochrome P450 3A4 [5]; 5 µM on Cytochrome P450 2D6; 2 µM in series [9]; 2 µM against Cytochrome P450 2C9. For the same compound, half-maximal inhibition at Cytochrome P450 2C19 (IC50) was put at 4 µM. For the same compound, the Ki on D(2) dopamine receptor was above 3.16 µM; on D(3) dopamine receptor, 0.0158 µM.

Take `Cc1ncoc1-c1nnc(SCCCN2CC3CC3(c3cccc(S(F)(F)(F)(F)F)c3)C2)n1C` (single isomer, unassigned; 12): the half-inhibitory concentration (IC50) against Cytochrome P450 1A2 was above 10 µM; on Cytochrome P450 3A4 [4], above 10 µM; against Cytochrome P450 3A4 [5], above 10 µM; against Cytochrome P450 2D6, 2 µM; in [9], 1.26 µM; on Cytochrome P450 2C9 it was 2 µM. This compound returned a half-maximal inhibitory concentration (IC50) at Cytochrome P450 2C19 of 3 µM. Also, the Ki is 0.0316 µM at D(2) dopamine receptor and 0.000631 µM on D(3) dopamine receptor.

`Cc1ncoc1-c1nnc(SCCCN2CC3CC3(c3ccc(S(F)(F)(F)(F)F)cc3)C2)n1C` (stereo in doubt; 8): the IC50 was 8 µM against Cytochrome P450 1A2; above 10 µM on Cytochrome P450 3A4 [4]; above 10 µM on Cytochrome P450 3A4 [5]; above 10 µM at Cytochrome P450 2D6; 9 µM against Cytochrome P450 2C9; above 10 µM on Cytochrome P450 2C19. Moreover, the inhibition constant Ki is 0.158 µM on D(2) dopamine receptor and 0.001 µM at D(3) dopamine receptor.

These data come from ChEMBL document CHEMBL1208692, “A specific and direct comparison of the trifluoromethyl and pentafluoro sulfanyl groups on the selective dopamine D(3) antagonist 3-(3-{[4-methyl-5-(4-methyl-1,3-oxazol-5-yl)-4H-1,2,4-triazol-3-yl]thio}propyl)-1-phenyl-3-azabicyclo[3.1.0]hexane template” (Bioorg Med Chem Lett, 2010).
